Converted amounts (≈) assume the structure as drawn.
Assays:
[1] = target: T1, Poly [ADP-ribose] polymerase 1 (Homo sapiens, UniProt P09874); settings: HeLa
Description: Ratio of inhibition of HeLa cell proliferation by MMS alone against MMS with PARP inhibitors

[2] = target: T1, Poly [ADP-ribose] polymerase 1; assay: Inhibitory activity against PARP1
CAPAN-1 = assay: Activity against BRCA2-deficient cells; type: functional, Homo sapiens
[3] = Volume of distribution in rat at 10 mg/kg, iv; type: ADME, organism-based; parameters: dose 10 mg/kg, route intravenous; settings: in vivo, read-out: Vdss
[4] = Aqueous solubility at pH 7.4; type: physicochemical
[5] = Half life in rat at 10 mg/kg, iv; type: ADME, organism-based; parameters: dose 10 mg/kg, route intravenous; settings: in vivo
RKO = assay: Activity against wild type cells; type: functional, Homo sapiens
[6] = Clearance in rat at 10 mg/kg, iv; type: ADME, organism-based; parameters: dose 10 mg/kg, route intravenous; settings: in vivo
Mus musculus = species: Mus musculus; assay: Intrinsic clearance in mouse hepatic microsomes; type: ADME, Liver, Microsome

T1 sequence (P09874 whole entry): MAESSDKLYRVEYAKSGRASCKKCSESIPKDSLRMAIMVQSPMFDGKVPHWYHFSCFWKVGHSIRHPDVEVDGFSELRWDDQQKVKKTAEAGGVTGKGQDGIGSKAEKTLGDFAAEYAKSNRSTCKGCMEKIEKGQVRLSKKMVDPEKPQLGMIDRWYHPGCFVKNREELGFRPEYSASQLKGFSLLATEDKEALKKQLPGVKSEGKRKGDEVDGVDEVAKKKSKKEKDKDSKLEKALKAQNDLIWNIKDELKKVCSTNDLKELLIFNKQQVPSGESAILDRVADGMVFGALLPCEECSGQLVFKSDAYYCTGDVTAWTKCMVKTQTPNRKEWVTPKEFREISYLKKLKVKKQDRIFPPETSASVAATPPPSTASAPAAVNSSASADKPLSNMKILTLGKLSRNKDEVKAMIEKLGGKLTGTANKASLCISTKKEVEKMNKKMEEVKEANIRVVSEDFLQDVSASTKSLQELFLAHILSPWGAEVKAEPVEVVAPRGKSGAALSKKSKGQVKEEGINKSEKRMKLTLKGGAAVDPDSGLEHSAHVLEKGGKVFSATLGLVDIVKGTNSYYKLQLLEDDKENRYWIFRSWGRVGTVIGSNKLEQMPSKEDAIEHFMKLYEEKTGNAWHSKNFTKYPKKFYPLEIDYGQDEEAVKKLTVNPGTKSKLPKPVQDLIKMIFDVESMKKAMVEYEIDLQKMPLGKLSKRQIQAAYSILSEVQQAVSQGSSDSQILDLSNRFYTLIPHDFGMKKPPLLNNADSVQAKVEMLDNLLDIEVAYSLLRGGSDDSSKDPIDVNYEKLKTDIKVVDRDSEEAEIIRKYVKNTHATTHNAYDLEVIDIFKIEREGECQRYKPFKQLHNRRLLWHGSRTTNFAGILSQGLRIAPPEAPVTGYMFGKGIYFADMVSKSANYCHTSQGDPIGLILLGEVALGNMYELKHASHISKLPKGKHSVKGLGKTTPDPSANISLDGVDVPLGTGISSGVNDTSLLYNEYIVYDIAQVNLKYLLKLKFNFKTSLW

Q: With `CCC(C)CN(C)C(=O)C1CCN(C(=O)c2cccc(Cc3nnc(O)c4ccccc34)c2)CC1` (stereo unspecified) as the molecule, how does the PF50 [1] read?
A: 2.6

Q: For `O=C(NC1CCCC1)C1CCN(C(=O)c2cccc(Cc3nnc(O)c4ccccc34)c2)CC1`, which PF50 [1] is on record?
A: 2.5

Q: And the IC50 [2]?
A: 15 nM

Q: For `COc1cccc(CCC(=O)N2CCCN(C(=O)c3cccc(Cc4nnc(O)c5ccccc45)c3)CC2)c1`, which PF50 [1] is on record?
A: 2.5

Q: What about the IC50 [2] of the same molecule?
A: 8 nM

Q: With `CC1CCN(C(=O)C2CCN(C(=O)c3cccc(Cc4nnc(O)c5ccccc45)c3)CC2)CC1` as the molecule, how does the PF50 [1] read?
A: 4.4

Q: With `COc1cc(C(=O)N2CCCN(C(=O)c3cccc(Cc4n[nH]c(=O)c5ccccc45)c3)CC2)cc(Cl)n1` as the molecule, how does the IC50 [2] read?
A: 9 nM

Q: Which IC50 [2] does the source give for `O=C(c1cc(Cc2n[nH]c(=O)c3ccccc23)ccc1F)N1CCCN(CC2CC2)CC1` here?
A: 5 nM

Q: Which PF50 [1] does the source give for `O=C(c1cc(Cc2nnc(O)c3ccccc23)ccc1F)N1CCCN(CC2CC2)CC1` here?
A: 6.7

Q: For `O=C(c1cccc(Cc2n[nH]c(=O)c3ccccc23)c1)N1CCNCC1`, which PF50 [1] is on record?
A: 3.7

Q: With `CN(C)CCN(C)C(=O)c1cccc(Cc2nnc(O)c3ccccc23)c1` as the molecule, how does the PF50 [1] read?
A: 2.2

Q: And the IC50 [2]?
A: 46 nM

Q: With `COc1cc2c(cc1OC)CN(C(=O)C1CCN(C(=O)c3cccc(Cc4n[nH]c(=O)c5ccccc45)c3)CC1)CC2` as the molecule, how does the IC50 [2] read?
A: 16 nM

Q: Which PF50 [1] does the source give for `CN(Cc1ccccc1)C(=O)C1CCN(C(=O)c2cccc(Cc3nnc(O)c4ccccc34)c2)CC1` here?
A: 2.1

Q: And the IC50 [2]?
A: 9 nM

Q: Which PF50 [1] does the source give for `Cc1noc(C)c1S(=O)(=O)N1CCCN(C(=O)c2cccc(Cc3nnc(O)c4ccccc34)c2)CC1` here?
A: 2.1

Q: For `O=C(c1cccc(Cc2n[nH]c(=O)c3ccccc23)c1)N1CCCNCC1`, which IC50 [2] is on record?
A: 9 nM

Q: With `O=C(c1cccc(Cc2nnc(O)c3ccccc23)c1)N1CCCN(CC2CC2)CC1` as the molecule, how does the PF50 [1] read?
A: 3.1

Q: For `O=C(c1cccc(Cc2nnc(O)c3ccccc23)c1)N1CCCN(S(=O)(=O)c2cccc(C(F)(F)F)c2)CC1`, which PF50 [1] is on record?
A: 2.1

Q: For `CCCN1CCCN(C(=O)c2cccc(Cc3n[nH]c(=O)c4ccccc34)c2)CC1`, which IC50 [2] is on record?
A: 10 nM

Q: With `O=C(c1cccc(Cc2n[nH]c(=O)c3ccccc23)c1)N1CCOCC1` as the molecule, how does the IC50 [2] read?
A: 40 nM

Q: Which IC50 [2] does the source give for `Cc1noc(C)c1S(=O)(=O)N1CCCN(C(=O)c2cccc(Cc3n[nH]c(=O)c4ccccc34)c2)CC1` here?
A: 12 nM

Q: Which PF50 [1] does the source give for `O=C(c1cccc(Cc2nnc(O)c3ccccc23)c1)N1CCOCC1` here?
A: 1.2

Q: With `CCN1CCCN(C(=O)c2cc(Cc3nnc(O)c4ccccc34)ccc2F)CC1` as the molecule, how does the PF50 [1] read?
A: 6.7

Q: Which PF50 [1] does the source give for `O=C(c1cccc(Cc2nnc(O)c3ccccc23)c1)N1CCCN(C2CCCCC2)CC1` here?
A: 6.6

Q: And the IC50 [2]?
A: 6 nM

Q: With `CCOC(=O)C1CCN(C(=O)c2cccc(Cc3n[nH]c(=O)c4ccccc34)c2)CC1` as the molecule, how does the IC50 [2] read?
A: 15 nM

Q: With `O=C(c1cc(Cc2n[nH]c(=O)c3ccccc23)ccc1F)N1CCCNCC1` as the molecule, how does the SF50 (CAPAN-1) read?
A: 15 nM

Q: And the Vd [3]?
A: 2.1 L/kg

Q: What about the PF50 [1] of the same molecule?
A: 12.6

Q: And the solubility [4]?
A: 5100 µg/mL (≈ 13.4 mM)

Q: And the half-life [5]?
A: 1 h

Q: What about the SF50 (RKO) of the same molecule?
A: 2 µM

Q: And the clearance [6]?
A: 54 mL/min/kg

Q: What about the IC50 [2] of the same molecule?
A: 7 nM

Q: For `CCC(C)CN(C)C(=O)C1CCN(C(=O)c2cccc(Cc3n[nH]c(=O)c4ccccc34)c2)CC1` (stereo unspecified), which IC50 [2] is on record?
A: 9 nM

Q: What does the source list for `O=C(c1cccc(Cc2nnc(O)c3ccccc23)c1)N1CCc2ccccc2C1`?
A: PF50 [1]: 3.4; IC50 [2]: 8 nM

Q: Which results are given for `CN1CCCN(C(=O)c2cccc(Cc3nnc(O)c4ccccc34)c2)CC1`?
A: PF50 [1]: 1.8; IC50 [2]: 23 nM

Q: With `CCNC(=O)c1cccc(Cc2n[nH]c(=O)c3ccccc23)c1` as the molecule, how does the PF50 [1] read?
A: 2.1

Q: What about the CL (Mus musculus) of the same molecule?
A: < 1 mL/min/g

Q: With `CCCN1CCCN(C(=O)c2cccc(Cc3nnc(O)c4ccccc34)c2)CC1` as the molecule, how does the PF50 [1] read?
A: 2.5

Q: Which PF50 [1] does the source give for `CCOC(=O)C1CCN(C(=O)c2cccc(Cc3nnc(O)c4ccccc34)c2)CC1` here?
A: 2.1

Q: Which PF50 [1] does the source give for `CCC(=O)Nc1cccc(Cc2n[nH]c(=O)c3ccccc23)c1` here?
A: 2.3

Q: And the CL (Mus musculus)?
A: 12 mL/min/g

Q: With `O=C(c1cccc(Cc2n[nH]c(=O)c3ccccc23)c1)N1CCCN(CC2CC2)CC1` as the molecule, how does the IC50 [2] read?
A: 14 nM

Q: For `CC(C)CNC(=O)C1CCN(C(=O)c2cccc(Cc3nnc(O)c4ccccc34)c2)CC1`, which PF50 [1] is on record?
A: 2

Q: And the IC50 [2]?
A: 16 nM

Q: Which results are given for `O=C(NCCc1cccs1)C1CCN(C(=O)c2cccc(Cc3nnc(O)c4ccccc34)c2)CC1`?
A: PF50 [1]: 2.8; IC50 [2]: 8 nM

Q: For `O=C(c1cccc(Cc2nnc(O)c3ccccc23)c1)N1CCCN(S(=O)(=O)c2ccc(-c3ccccc3)cc2)CC1`, which PF50 [1] is on record?
A: 3.2

Q: For `O=C(c1cccc(Cc2nnc(O)c3ccccc23)c1)N1CCCNCC1`, which PF50 [1] is on record?
A: 2.4

Q: Which PF50 [1] does the source give for `COc1ccc(NC(=O)N2CCCN(C(=O)c3cccc(Cc4nnc(O)c5ccccc45)c3)CC2)cc1` here?
A: 2.2

Q: Which PF50 [1] does the source give for `O=C(c1cccc(Cc2nnc(O)c3ccccc23)c1)N1CCC(C(=O)N2CCCCC2)CC1` here?
A: 3.9

Q: And the IC50 [2]?
A: 15 nM

Q: Which PF50 [1] does the source give for `CN1CCCN(C(=O)c2cc(Cc3nnc(O)c4ccccc34)ccc2F)CC1` here?
A: 5.5

Q: And the IC50 [2]?
A: 9 nM

Q: Which results are given for `CCN1CCCN(C(=O)c2cccc(Cc3nnc(O)c4ccccc34)c2)CC1`?
A: PF50 [1]: 2.6; IC50 [2]: 15 nM

Q: Which PF50 [1] does the source give for `O=C(c1cc(Cc2nnc(O)c3ccccc23)ccc1F)N1CCCN(C2CCCCC2)CC1` here?
A: 6.3

Q: For `CC1CCN(C(=O)C2CCN(C(=O)c3cccc(Cc4n[nH]c(=O)c5ccccc45)c3)CC2)CC1`, which IC50 [2] is on record?
A: 8 nM

Q: With `COc1cc2c(cc1OC)CN(C(=O)C1CCN(C(=O)c3cccc(Cc4nnc(O)c5ccccc45)c3)CC1)CC2` as the molecule, how does the PF50 [1] read?
A: 4.1

Q: What does the source list for `CCCN1CCCN(C(=O)c2cc(Cc3nnc(O)c4ccccc34)ccc2F)CC1`?
A: PF50 [1]: 7; IC50 [2]: 5 nM

Q: Which PF50 [1] does the source give for `COc1cc(C(=O)N2CCCN(C(=O)c3cccc(Cc4nnc(O)c5ccccc45)c3)CC2)cc(Cl)n1` here?
A: 2.5

— ChEMBL document CHEMBL1138134, “Phthalazinones 2: Optimisation and synthesis of novel potent inhibitors of poly(ADP-ribose)polymerase” (Bioorg Med Chem Lett, 2006)
